Assay results from PubChem BioAssay (NCI).
Values joined by “and” are separate entries in the source; they are usually repeats but may differ in a detail not shown here. Equal entries are not always repeated.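 In this assay, cells in 96-well plates receive the compound at five concentrations for 48 hours. Endpoints are linearly interpolated between the surrounding concentrations. GI50 = concentration required for 50% inhibition of growth. TGI denotes the concentration required for complete inhibition of growth.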

Columns and labels:
Test in all cases: NCI anticancer screen, dose series, 48 h
M14 melanoma = tested on: M14 melanoma
TK-10 renal = tested on: TK-10 renal
KM12 colon = tested on: KM12 colon
SF-268 CNS = tested on: SF-268 CNS
LOX IMVI melanoma = tested on: LOX IMVI melanoma
CAKI-1 renal = tested on: CAKI-1 renal
NCI/ADR-RES ovarian = tested on: NCI/ADR-RES ovarian
CCRF-CEM leukemia = tested on: CCRF-CEM leukemia
K-562 leukemia = tested on: K-562 leukemia
HOP-92 NSCLC = tested on: HOP-92 NSCLC

Structure (SMILES) | GI50 (M14 melanoma) [µM] | TGI (M14 melanoma) | GI50 (TK-10 renal) [µM] | TGI (TK-10 renal) | GI50 (KM12 colon) [µM] | TGI (KM12 colon) | GI50 (SF-268 CNS) [µM] | TGI (SF-268 CNS) | GI50 (LOX IMVI melanoma) [µM] | TGI (LOX IMVI melanoma) [µM] | GI50 (CAKI-1 renal) [µM] | TGI (CAKI-1 renal) [µM] | GI50 (NCI/ADR-RES ovarian) [µM] | TGI (NCI/ADR-RES ovarian) [µM] | GI50 (CCRF-CEM leukemia) [µM] | TGI (CCRF-CEM leukemia) [µM] | GI50 (K-562 leukemia) [µM] | TGI (K-562 leukemia) [µM] | GI50 (HOP-92 NSCLC) [µM] | TGI (HOP-92 NSCLC)
C=C1C(=O)O[C@H]2[C@H]1CC/C(C=Nc1ccc(C(F)(F)F)cc1N)=C\CC[C@@]1(C)O[C@@H]21 | 8.04 | 22.3 µM | 6.14 | 17.4 µM | 13.4 | 28.3 µM | 7.6 | 21.1 µM | 4.12 | 17.4 | 3.73 | 16.7 | 8.09 | 45.2 | 3.16 | 11.2 | 4.39 | 16.5 | 15.4 | 29.7 µM
NC(=O)c1nnn(Cc2cc(Cl)c(C(=O)c3ccc(Cl)cc3)c(Cl)c2)c1N | > 9.09 | > 9.09 µM and 36.7 µM | > 9.09 | > 9.09 µM and 39 µM | > 9.09 | > 9.09 µM and 35 µM | > 9.09 | > 9.09 µM and 29 µM | > 9.09 | > 47.2 |  | 25.5 |  | > 66.4 | 7.76 | > 100 | 2.19 | > 70.2 | > 9.09 | > 9.09 µM and 48.8 µM
Fc1ccc(-c2ncn(C3CCNCC3)c2-c2ccnc(Oc3ccccc3)n2)cc1 | 9.86 | > 25 µM | 21.2 | > 25 µM | > 25 | > 25 µM | > 25 | > 25 µM | > 15.8 | > 25 | 18.4 | > 25 | > 25 | > 25 | > 23.3 | > 25 | 10.8 | > 25 | 5.75 | > 25 µM
CCOC(=O)C1=C(N)Oc2c(sc3c(C)cccc23)C1c1ccc(Cl)cc1 (stereo not drawn) | 2.46 | 11.2 µM | 12.6 | 29.1 µM | 1.62 | 13.3 µM | 6.13 | 22.4 µM | 3.03 | 13.7 | 1.2 | 17.3 | 0.952 | 7.18 | 3.65 | 24.1 | 1.32 | > 100 | 3.83 | 20.7 µM
O=C(O)CNC(=O)c1ccccc1O |  | > 100 µM |  | > 100 µM |  | > 100 µM |  | > 100 µM |  | > 100 |  | > 100 |  | > 100 |  | > 100 |  | > 100 |  | > 100 µM
Nc1ncnc2c1c(-c1cccc(OCc3ccccc3)c1)cn2C1CC(CN2CCCC2)C1 (stereo not drawn) | 1.61 | 3.2 µM | 1.84 | 5.05 µM | 1.93 | 4.26 µM | 1.94 | 4.61 µM | 1.52 | 3 | 2.08 | 9.27 | 5.01 | 21.5 | 2.51 | 6.66 | 1.86 | 6.54 | 0.0749 | 0.867 µM
Cc1cc(Cl)ccc1NC(=O)/C(Cl)=C(/Cl)C(=O)O |  | 72.1 µM |  | 33.2 µM |  | 82.8 µM |  | > 100 µM |  | 43 |  | 37.6 |  | 74.2 |  | > 100 |  | > 100 |  | 54.5 µM
CCOC(=O)c1ccc2c(c1)[n+](=O)c(C(=O)c1ccc3ccccc3c1)c(C(F)(F)F)n2[O-] | 1.44 | 2.74 µM | 1.89 | 3.3 µM | 1.25 | 2.51 µM | 1.15 | 2.36 µM | 0.175 | 0.329 | 1.42 | 2.85 | 1.61 | 3.31 | 0.4 | 2.29 | 0.312 | 1.51 | 1.2 | 2.52 µM
CSC(=S)N/N=C/c1ccccc1 |  | > 100 µM |  | > 100 µM |  | > 100 µM |  | > 100 µM |  | > 100 |  | 89.4 |  | > 100 |  | > 100 |  | > 100 |  | > 100 µM
CC1(C)CC(=O)C(CC(C(=O)C(=O)Nc2cc(C(F)(F)F)ccc2Cl)C(=O)c2ccco2)C(=O)C1 (stereo not drawn) |  | > 100 µM |  | > 100 µM |  | > 100 µM |  | > 100 µM |  | > 100 |  | > 100 |  | > 100 |  | > 100 |  | > 100 |  | > 100 µM
